# Experiments:
# [1] = tested on: Rb phosphorylation in cells; conditions: literature report; cited from earlier work
# phosphorylated Rb = conditions: phase 1, in combination with docetaxel, cited from earlier work
# [2] = tested on: Rb phosphorylation in rat PBMCs; assay: Rb phosphorylation in rat PBMCs following ex vivo PMA activation; format: cell-based; conditions: 300 ng/ml for 24 hours, Western blot
# Experimental: PBMCs are not cycling cells and need to be stimulated with the mitogen PMA to enter the cell cycle.
# Blood from three rats at the specified times was pooled (˜10 mls total) and PBMCs were separated using the Lymphocyte Separation Medium (LSM) and protocol supplied by ICN Biomedicals Inc. (Costa Mesa, Calif.). Briefly whole blood was diluted 1:1 with cold HBSS (Hanks Balanced Salt Solution), layered onto the LSM and centrifuged. The layer of mononuclear cells above the LSM was collected, transferred to a new tube and washed once with cold HBSS. Cells were resuspended in RPMI 1640, 10% HI-FBS, 2 mM L-glutamine and 0.01 mg/ml Gentamicin Reagent Solution (GIBCO/Invitrogen). Cells were seeded into T-75 cm^2 flasks at ≦1×10^7 cells in 20 mls medium and stimulated with 300 ng/ml of phorbol 12-myristate 13-acetate (PMA) for 24 hours. […]
# (§1) PBMCs were collected by transferring the cells, including attached cells and those in suspension, into 50 ml tubes. […] Samples were sonicated on ice for 30 seconds, clarified by centrifugation at 16,000×g for 10 minutes at 4° C. and protein concentrations determined using Non-Interfering Protein Assay Kit (Geno Technology Incorporated, Maplewood, Mo.). […] For Western blotting, total Rb was detected using antibody from Pharmingen (BD Bioscience, San Diego, Calif.) at a dilution of 1:2000. […]
# [3] = tested on: Rb phosphorylation in human PBMCs; assay: Rb phosphorylation in human PBMCs stimulated ex vivo with PMA; format: cell-based
# Experimental: Approximately 10 mls of blood was collected from five healthy human volunteers into sodium heparin treated Vacutainer blood collection tubes by Employee Health Services. PBMCs were separated using the Lymphocyte Separation Medium (LSM) and protocol supplied by ICN Biomedicals Inc. (Costa Mesa, Calif.). Briefly whole blood was diluted 1:1 with cold HBSS (Hanks Balanced Salt Solution), layered onto the LSM and centrifuged. The band of mononuclear cells above the LSM was collected, transferred to a new tube and washed once with cold HBSS. Cells were resuspended in RPMI 1640, 10% HI-FBS, 2 mM L-glutamine and 0.01 mg/ml Gentamicin Reagent Solution (GIBCO/Invitrogen). […]
# as §1, with “1:2000. Lysates were analysed by Western blotting for Rb phosphorylation using polyclonal antibodies against phosphorylated serine 795, serine 780, threonine 821 and serine 807/811 in human Rb (FIG. 8).” for “1:2000.”
# [4] = tested on: Rb phosphorylation in tumor xenografts; conditions: literature report; cited from earlier work
smiles,measurement,setting,value
CN1CC[C@H](c2c(O)cc(O)c3c(=O)cc(-c4ccccc4Cl)oc23)[C@H](O)C1 [flavopiridol],Rb phosphorylation in cells,[1],Inhibition of Rb phosphorylation
same,pRb in paired tumors,phosphorylated Rb; 6 paired tumors,no significant changes
same,pRb in buccal mucosa biopsies post treatment,phosphorylated Rb; patients with metastatic tumors,somewhat decreased
"CCCCCCCCCCCCCC(=O)O[C@@H]1[C@@H](C)[C@@]2(O)[C@@H](C=C(CO)C[C@]3(O)C(=O)C(C)=C[C@@H]23)[C@@H]2C(C)(C)[C@]12OC(C)=O [PMA, phorbol 12-myristate 13-acetate]",Phosphorylated Rb in rat PBMCs after mitogen stimulation,[2],sufficient for detection of phosphorylated Rb
same,Phosphorylation at serine 795 and serine 780 in human PBMCs,"[3]; 300 ng/ml, 24, 48 and 72 hours post stimulation",not significant until 48-72 hours
same,Phosphorylation at serine 807/811 and threonine 821 sites in human PBMCs,"[3]; 300 ng/ml, 24 hours post mitogen addition, five donors",Significant phosphorylation
CC(=O)c1c(C)c2cnc(Nc3ccc(N4CCNCC4)cn3)nc2n(C2CCCC2)c1=O [PD 0332991],Rb phosphorylation in cells,[1],Inhibition of Rb phosphorylation
same,Rb phosphorylation in tumor xenografts,[4],Inhibition of Rb phosphorylation
"CC[C@H](CO)Nc1nc(NCc2ccccc2)c2ncn(C(C)C)c2n1 [CYC 202, r-Roscovitine]",Rb phosphorylation in cells,[1],Inhibition of Rb phosphorylation
CC(C)(C)c1cnc(CSc2cnc(NC(=O)C3CCNCC3)s2)o1 [BMS-387032],Rb phosphorylation in cells,[1],Inhibition of Rb phosphorylation

# From patent publication US20060269482A1 (priority 2005, published 2006)
